Experimental data from patent publication US20220135540A1, “POLYMORPHS OF AN FXR AGONIST” (Eli Lilly and Company, priority 2020, published 2022).
One block for each compound: values may come before it.

Tests used:
[1] = Tissue distribution (liver versus plasma and other tissues); type: in vivo; conditions: liver relative to plasma, heart and skin, liver vs plasma, kidney, lungs, read-out: concentration in the liver relative to plasma, kidney, lungs, heart, and skin
Description: Compound I is preferentially distributed to the liver, which, without being bound by theory, would allow the compound to reach its FXR target in the liver with fewer off-target adverse effects. For example, Compound I has an approximately 20-fold higher concentration in the liver than in the plasma, kidney, lungs, heart, and skin. This trait would likely be particularly beneficial for vulnerable populations, such as children, the elderly, and people with comorbidities.

[2] = Moisture sorption analysis (MSA); type: physicochemical; conditions: for hygroscopicity (overall, from moisture sorption data): 5% to 95% RH; for weight change (loss) between ~95% RH and ~5% RH: desorption step ~95% to ~5% RH; for weight loss upon equilibration at ~5% RH: moisture sorption; for weight change (gain) between ~5% and ~95% RH: sorption step ~5% to ~95% RH
Procedure: MSA analyses were performed using a VTI SGA-100 Vapor Sorption Analyzer. Sorption and desorption data were collected over a range of 5% to 95% relative humidity (RH) at 10% RH intervals under a nitrogen purge. Samples were not dried prior to analysis. Equilibrium criteria used for analysis were less than 0.0100% weight change in 5 minutes, with a maximum equilibration time of 3 hours if the weight criterion was not met. Data were not corrected for the initial moisture content of the samples. NaCl and PVP were used as calibration standards.

[3] = Solid form stability when stressed at high relative humidity; type: physicochemical; conditions: ~94% RH for 10 days
Procedure: Polymorphic Form I of Compound I was obtained by slurrying of Compound I in ethyl acetate or methanol at room temperature, or in a mixture IPA:water 1:1 at ˜58° C. Additionally, Form I was obtained by slow cooling of a solution of Compound I in acetonitrile.

[4] = Slurry interconversion of polymorphic forms; type: physicochemical
Procedure: Slurry interconversion experiments were performed at temperatures ranging from room temperature to ˜81° C. Solvent systems used for the study were nitromethane, acetonitrile, and a THF/heptane 1:2 (v/v) mixture.

SMILES: Cn1cc(C(=O)O)c2ccc(N3CCC(OCc4c(-c5c(Cl)cccc5Cl)noc4C4CC4)CC3)cc21 [Compound I, 6-(4-((5-cyclopropyl-3-(2,6-dichlorophenyl)isoxazol-4-yl)methoxy)piperidin-1-yl)-1-methyl-1H-indole-3-carboxylic acid]
Kp [1]: ~20

SMILES: Cn1cc(C(=O)O)c2ccc(N3CCC(OCc4c(-c5c(Cl)cccc5Cl)noc4C4CC4)CC3)cc21 [Form I, 6-(4-((5-cyclopropyl-3-(2,6-dichlorophenyl)isoxazol-4-yl)methoxy)piperidin-1-yl)-1-methyl-1H-indole-3-carboxylic acid]
hygroscopicity (overall, from moisture sorption data) [2]: low hygroscopicity | weight change (loss) between ~95% RH and ~5% RH [2]: ~0.4 wt % | weight loss upon equilibration at ~5% RH [2]: ~0.1 wt % | weight change (gain) between ~5% and ~95% RH [2]: ~0.4 wt % | stability as a solid form under humidity stress [3]: remained stable

SMILES: Cn1cc(C(=O)O)c2ccc(N3CCC(OCc4c(-c5c(Cl)cccc5Cl)noc4C4CC4)CC3)cc21 [Form II, 6-(4-((5-cyclopropyl-3-(2,6-dichlorophenyl)isoxazol-4-yl)methoxy)piperidin-1-yl)-1-methyl-1H-indole-3-carboxylic acid]
hygroscopicity (overall, from moisture sorption data) [2]: low hygroscopicity | weight change (loss) between ~95% RH and ~5% RH [2]: negligible weight change | weight loss upon equilibration at ~5% RH [2]: ~0.6 wt % | weight change (gain) between ~5% and ~95% RH [2]: negligible weight change | relative stability among polymorphic forms ([4]; ambient temperature and elevated temperature up to ~81° C.): most stable form

Further lines, results first:

XRPD Result of slurry interconversion ([4]; ACN, RT, 1 day, ~5 mg each): Form II | XRPD Result of slurry interconversion ([4]; Nitromethane, RT, 3 days, ~5 mg each): Form II | XRPD Result of slurry interconversion ([4]; Nitromethane, ~78-81° C., 3 days, ~5 mg each): Form II
SMILES: Cn1cc(C(=O)O)c2ccc(N3CCC(OCc4c(-c5c(Cl)cccc5Cl)noc4C4CC4)CC3)cc21 [I, II, III, IV, V, VI, VII]

XRPD Result of slurry interconversion ([4]; ACN, ~66-69° C., 1 day, ~5 mg each): Form II
SMILES: Cn1cc(C(=O)O)c2ccc(N3CCC(OCc4c(-c5c(Cl)cccc5Cl)noc4C4CC4)CC3)cc21 [I, II, III, V]

XRPD Result of slurry interconversion ([4]; THF/heptane 1:2, ~61° C., 1 day, ~15 mg each): Form II | XRPD Result of slurry interconversion ([4]; THF:heptane 1:2, RT, 1 day, ~15 mg each): Form II
SMILES: Cn1cc(C(=O)O)c2ccc(N3CCC(OCc4c(-c5c(Cl)cccc5Cl)noc4C4CC4)CC3)cc21 [I, II, VI]
